# Results published in patent publication US6737383B1, “Herbicidal oxadiazolidines” (priority 1999, dated 2004).
# Legend:
# [1] = tested on: cocklebur; experiment: Test B pre/postemergence cocklebur; format: in vivo, Xanthium strumarium; conditions: for Cocklebur plant response rating: scale of 0 to 10 where 0 is no effect and 10 is complete control
# Outline: (§1)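 Herbicidal effect was estimated by eye on a ten-point control scale after plants spent twelve to sixteen days in a greenhouse following soil or foliar treatment. Foliar sprays targeted plants at one to four leaves; all doses were formulated in a non-phytotoxic solvent with surfactant.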
# [2] = tested on: corn; experiment: Test B pre/postemergence corn; format: in vivo, Zea mays; conditions: for Corn plant response rating: scale of 0 to 10 where 0 is no effect and 10 is complete control
# Outline: as §1
# [3] = tested on: crabgrass; experiment: Test B pre/postemergence crabgrass; format: in vivo, Digitaria sanguinalis; conditions: for Crabgrass plant response rating: scale of 0 to 10 where 0 is no effect and 10 is complete control
# Outline: as §1
# [4] = tested on: giant foxtail; experiment: Test B pre/postemergence giant foxtail; format: in vivo, Setaria faberii; conditions: for Giant foxtail plant response rating: scale of 0 to 10 where 0 is no effect and 10 is complete control
# Outline: as §1
# [5] = tested on: morningglory; experiment: Test B pre/postemergence morningglory; format: in vivo, Ipomoea hederacea; conditions: for Morningglory plant response rating: scale of 0 to 10 where 0 is no effect and 10 is complete control
# Outline: as §1
# [6] = tested on: pigweed; experiment: Test B pre/postemergence pigweed; format: in vivo, Amaranthus retroflexus; conditions: for Redroot pigweed plant response rating: scale of 0 to 10 where 0 is no effect and 10 is complete control
# Outline: as §1
# [7] = tested on: rape; experiment: Test B pre/postemergence rape; format: in vivo, Brassica napus; conditions: for Rape plant response rating: scale of 0 to 10 where 0 is no effect and 10 is complete control
# Outline: as §1
# [8] = tested on: soybean; experiment: Test B pre/postemergence soybean; format: in vivo, Glycine max; conditions: for Soybean plant response rating: scale of 0 to 10 where 0 is no effect and 10 is complete control
# Outline: as §1
# [9] = tested on: sugar beet; experiment: Test B pre/postemergence sugar beet; format: in vivo, Beta vulgaris; conditions: for Sugarbeets plant response rating: scale of 0 to 10 where 0 is no effect and 10 is complete control
# Outline: as §1
# [10] = tested on: velvetleaf; experiment: Test B pre/postemergence velvetleaf; format: in vivo, Abutilon theophrasti; conditions: for Velvetleaf plant response rating: scale of 0 to 10 where 0 is no effect and 10 is complete control
# Outline: as §1
# [11] = tested on: wheat; experiment: Test B pre/postemergence wheat; format: in vivo, Triticum aestivum; conditions: for Wheat plant response rating: scale of 0 to 10 where 0 is no effect and 10 is complete control
# Outline: as §1
# [12] = tested on: wild oat; experiment: Test B pre/postemergence wild oat; format: in vivo, Avena fatua; conditions: for Wild oats plant response rating: scale of 0 to 10 where 0 is no effect and 10 is complete control
# Outline: as §1
# [13] = tested on: purple nutsedge; experiment: Test B pre/postemergence purple nutsedge; format: in vivo, Cyperus rotundus; conditions: for Nutsedge plant response rating: scale of 0 to 10 where 0 is no effect and 10 is complete control
# Outline: as §1
# [14] = tested on: rice; experiment: Test B flood test rice; format: in vivo, Oryza sativa
# Outline: (§2)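 Plants were grown to the 2-leaf stage before treatment with test chemical, then held in a greenhouse for twelve to sixteen days. Injury was visually rated against untreated controls on a 0–10 scale, where 0 is no effect and 10 is complete control.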
# [15] = tested on: smallflower flatsedge; experiment: Test B flood test smallflower flatsedge; format: in vivo, Cyperus difformis
# Outline: as §2
# [16] = tested on: duck salad; experiment: Test B flood test duck salad; format: in vivo, Heteranthera limosa
# Outline: as §2
# [17] = Postemergence, Rate 125 g/ha, scale 0 to 10, 0 is no effect, 10 is complete control
# [18] = Rate 500 g/ha, Postemergence, scale 0 to 10, 0 no effect, 10 complete control
# [19] = Rate 62 g/ha, headed Pre-emergence (flood test species), scale 0 to 10 (0 no effect, 10 complete control)
# [20] = Rate 125 g/ha, Pre-emergence, flood test species, scale 0 to 10 where 0 is no effect and 10 is complete control
# [21] = Rate 250 g/ha, Pre-emergence, flood-test species, scale 0 to 10, 0 is no effect, 10 is complete control
# [22] = Rate 500 g/ha, Pre-emergence, flood test species, scale 0 to 10 (0 no effect, 10 complete control)
smiles,measurement,setting,value
CC(C)N(C(=O)n1oc(=O)n(C2CCCCCC2)c1=O)c1ccc(F)cc1 [Compound 340],"Plant response rating, Cocklebur",[1]; [17],0
same,Cocklebur plant response rating,"[1]; Preemergence, Rate 62 g/ha",0
same,Cocklebur plant response rating (0 to 10 scale),"[1]; Preemergence, Rate 125 g/ha",0
same,Cocklebur plant response rating,"[1]; Preemergence, Rate 250 g/ha",0
same,Cocklebur plant response rating,"[1]; Preemergence, Rate 500 g/ha",0
same,Cocklebur plant response rating,"[1]; Rate 62 g/ha, Postemergence",0
same,"Plant response rating, Cocklebur",[1]; [18],0
same,"Plant response rating, Corn",[2]; [17],0
same,Corn plant response rating,"[2]; Preemergence, Rate 62 g/ha",0
same,Corn plant response rating (0 to 10 scale),"[2]; Preemergence, Rate 125 g/ha",0
same,Corn plant response rating,"[2]; Preemergence, Rate 250 g/ha",0
same,Corn plant response rating,"[2]; Preemergence, Rate 500 g/ha",0
same,Corn plant response rating,"[2]; Rate 62 g/ha, Postemergence",0
same,"Plant response rating, Corn",[2]; [18],0
same,"Plant response rating, Crabgrass",[3]; [17],0
same,Crabgrass plant response rating,"[3]; Preemergence, Rate 62 g/ha",0
same,Crabgrass plant response rating (0 to 10 scale),"[3]; Preemergence, Rate 125 g/ha",3
same,Crabgrass plant response rating,"[3]; Preemergence, Rate 250 g/ha",8
same,Crabgrass plant response rating,"[3]; Preemergence, Rate 500 g/ha",9
same,Crabgrass plant response rating,"[3]; Rate 62 g/ha, Postemergence",0
same,"Plant response rating, Crabgrass",[3]; [18],2
same,"Plant response rating, Giant foxtail",[4]; [17],0
same,Giant foxtail plant response rating,"[4]; Preemergence, Rate 62 g/ha",8
same,Giant foxtail plant response rating (0 to 10 scale),"[4]; Preemergence, Rate 125 g/ha",10
same,Giant foxtail plant response rating,"[4]; Preemergence, Rate 250 g/ha",10
same,Giant foxtail plant response rating,"[4]; Preemergence, Rate 500 g/ha",10
same,Giant foxtail plant response rating,"[4]; Rate 62 g/ha, Postemergence",0
same,"Plant response rating, Giant foxtail",[4]; [18],6
same,"Plant response rating, Morningglory",[5]; [17],7
same,Morningglory plant response rating,"[5]; Preemergence, Rate 62 g/ha",0
same,Morningglory plant response rating (0 to 10 scale),"[5]; Preemergence, Rate 125 g/ha",0
same,Morningglory plant response rating,"[5]; Preemergence, Rate 250 g/ha",0
same,Morningglory plant response rating,"[5]; Preemergence, Rate 500 g/ha",0
same,Morningglory plant response rating,"[5]; Rate 62 g/ha, Postemergence",2
same,"Plant response rating, Morningglory",[5]; [18],10
same,"Plant response rating, Redroot pigweed",[6]; [17],4
same,Redroot pigweed plant response rating,"[6]; Preemergence, Rate 62 g/ha",0
same,Redroot pigweed plant response rating (0 to 10 scale),"[6]; Preemergence, Rate 125 g/ha",0
same,Redroot pigweed plant response rating,"[6]; Preemergence, Rate 250 g/ha",3
same,Redroot pigweed plant response rating,"[6]; Preemergence, Rate 500 g/ha",4
same,Redroot pigweed plant response rating,"[6]; Rate 62 g/ha, Postemergence",2
same,"Plant response rating, Rape",[7]; [17],2
same,Rape plant response rating,"[7]; Preemergence, Rate 62 g/ha",0
same,Rape plant response rating (0 to 10 scale),"[7]; Preemergence, Rate 125 g/ha",0
same,Rape plant response rating,"[7]; Preemergence, Rate 250 g/ha",0
same,Rape plant response rating,"[7]; Preemergence, Rate 500 g/ha",0
same,Rape plant response rating,"[7]; Rate 62 g/ha, Postemergence",2
same,"Plant response rating, Rape",[7]; [18],6
same,"Plant response rating, Soybean",[8]; [17],2
same,Soybean plant response rating,"[8]; Preemergence, Rate 62 g/ha",0
same,Soybean plant response rating (0 to 10 scale),"[8]; Preemergence, Rate 125 g/ha",0
same,Soybean plant response rating,"[8]; Preemergence, Rate 250 g/ha",0
same,Soybean plant response rating,"[8]; Preemergence, Rate 500 g/ha",0
same,Soybean plant response rating,"[8]; Rate 62 g/ha, Postemergence",1
same,"Plant response rating, Soybean",[8]; [18],3
same,"Plant response rating, Sugarbeets",[9]; [17],2
same,Sugarbeets plant response rating,"[9]; Preemergence, Rate 62 g/ha",0
same,Sugarbeets plant response rating (0 to 10 scale),"[9]; Preemergence, Rate 125 g/ha",0
same,Sugarbeets plant response rating,"[9]; Preemergence, Rate 250 g/ha",0
same,Sugarbeets plant response rating,"[9]; Preemergence, Rate 500 g/ha",0
same,Sugarbeets plant response rating,"[9]; Rate 62 g/ha, Postemergence",0
same,"Plant response rating, Sugarbeets",[9]; [18],6
same,"Plant response rating, Velvetleaf",[10]; [17],0
same,Velvetleaf plant response rating,"[10]; Preemergence, Rate 62 g/ha",0
same,Velvetleaf plant response rating (0 to 10 scale),"[10]; Preemergence, Rate 125 g/ha",0
same,Velvetleaf plant response rating,"[10]; Preemergence, Rate 250 g/ha",0
same,Velvetleaf plant response rating,"[10]; Preemergence, Rate 500 g/ha",2
same,Velvetleaf plant response rating,"[10]; Rate 62 g/ha, Postemergence",0
same,"Plant response rating, Velvetleaf",[10]; [18],3
same,"Plant response rating, Wheat",[11]; [17],0
same,Wheat plant response rating,"[11]; Preemergence, Rate 62 g/ha",0
same,Wheat plant response rating (0 to 10 scale),"[11]; Preemergence, Rate 125 g/ha",0
same,Wheat plant response rating,"[11]; Preemergence, Rate 250 g/ha",0
same,Wheat plant response rating,"[11]; Preemergence, Rate 500 g/ha",0
same,Wheat plant response rating,"[11]; Rate 62 g/ha, Postemergence",0
same,"Plant response rating, Wheat",[11]; [18],0
same,"Plant response rating, Wild oats",[12]; [17],0
same,Wild oats plant response rating,"[12]; Preemergence, Rate 62 g/ha",0
same,Wild oats plant response rating (0 to 10 scale),"[12]; Preemergence, Rate 125 g/ha",0
same,Wild oats plant response rating,"[12]; Preemergence, Rate 250 g/ha",2
same,Wild oats plant response rating,"[12]; Preemergence, Rate 500 g/ha",3
same,Wild oats plant response rating,"[12]; Rate 62 g/ha, Postemergence",0
same,"Plant response rating, Wild oats",[12]; [18],0
same,"Plant response rating, Nutsedge",[13]; [17],0
same,Nutsedge plant response rating,"[13]; Preemergence, Rate 62 g/ha",0
same,Nutsedge plant response rating (0 to 10 scale),"[13]; Preemergence, Rate 125 g/ha",0
same,Nutsedge plant response rating,"[13]; Preemergence, Rate 250 g/ha",0
same,Nutsedge plant response rating,"[13]; Preemergence, Rate 500 g/ha",0
same,Nutsedge plant response rating,"[13]; Rate 62 g/ha, Postemergence",0
same,"Plant response rating, Nutsedge",[13]; [18],0
same,Rice plant response rating,[14]; [19],0
same,Rice plant response rating,[14]; [20],0
same,Rice plant response rating,[14]; [21],0
same,Rice plant response rating,[14]; [22],0
same,S. Flatsedge plant response rating,[15]; [19],0
same,S. Flatsedge plant response rating,[15]; [20],0
same,S. Flatsedge plant response rating,[15]; [21],2
same,S. Flatsedge plant response rating,[15]; [22],9
same,Ducksalad plant response rating,[16]; [19],0
same,Ducksalad plant response rating,[16]; [20],0
same,Ducksalad plant response rating,[16]; [21],0
same,Ducksalad plant response rating,[16]; [22],5
